Data set [1] addresses T1, PKD2 (Homo sapiens, UniProt Q9BZL6).
T1 construct: purchased Abcam ab60875
T1 sequence (Q9BZL6 1-878): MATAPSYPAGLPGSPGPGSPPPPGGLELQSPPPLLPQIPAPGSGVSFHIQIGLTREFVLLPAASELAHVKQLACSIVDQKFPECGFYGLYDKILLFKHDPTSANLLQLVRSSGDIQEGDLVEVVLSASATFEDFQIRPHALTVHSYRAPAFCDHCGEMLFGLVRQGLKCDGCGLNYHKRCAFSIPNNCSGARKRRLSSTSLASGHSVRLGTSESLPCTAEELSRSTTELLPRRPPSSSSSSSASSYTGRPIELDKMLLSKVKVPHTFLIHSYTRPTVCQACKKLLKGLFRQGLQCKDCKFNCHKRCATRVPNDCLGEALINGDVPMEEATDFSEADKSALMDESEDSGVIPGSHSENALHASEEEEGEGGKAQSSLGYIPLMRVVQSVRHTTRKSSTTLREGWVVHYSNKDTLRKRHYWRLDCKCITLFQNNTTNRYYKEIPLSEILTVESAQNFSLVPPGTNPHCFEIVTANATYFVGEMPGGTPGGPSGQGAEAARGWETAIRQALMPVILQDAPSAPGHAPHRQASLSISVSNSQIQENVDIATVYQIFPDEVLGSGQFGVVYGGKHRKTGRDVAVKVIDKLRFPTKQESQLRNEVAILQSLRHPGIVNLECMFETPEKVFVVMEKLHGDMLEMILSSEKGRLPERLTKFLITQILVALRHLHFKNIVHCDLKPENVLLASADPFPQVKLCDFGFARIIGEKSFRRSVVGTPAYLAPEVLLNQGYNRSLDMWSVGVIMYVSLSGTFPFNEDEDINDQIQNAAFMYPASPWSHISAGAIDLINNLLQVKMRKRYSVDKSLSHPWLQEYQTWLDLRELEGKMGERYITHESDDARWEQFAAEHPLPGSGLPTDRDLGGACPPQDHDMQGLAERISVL
The experiment in a line: In-vitro kinase assay: PKD2 phosphorylation of APOA4. Particulars: recombinant human PKD2 and APOA4, western blot, FIG. 5H. The class given is biochemical. On the procedure:
Recombinant human proteins used for the study, PKD2 and APOA4, were both purchased from Abcam. […] Then, western blot was performed and incubated with a primary antibody against the phosphorylated motif (RxxS/T*) (Cell Signaling).

The subject of data set [2] is male C57BL/6 mice on HFD. The data set is described as follows: Oral PKD inhibitor in HFD-fed C57BL/6 mice (diet-induced obesity and diabetes). It counts as in vivo, mouse. How it is done:
Mice body weight development was closely monitored and reported here on a weekly basis when mice were on a specified diet. All experiments were performed in male mice.
PKD inhibitor CRT0066101 was dissolved in water (10 mg/kg) and administered orally to the mice by daily gavage, while the control mice were gavaged with water. Mice were maintained on the specified diets and had ab libitum access to food and water. C57BL/6 mice were administered CRT inhibitor treatment at 4-weeks of age, while for the rescue experiment, inhibitor was given under the same circumstances but treatment started only after 7 weeks of HFD feeding. Intestinal barrier permeability was further assessed 1 hour after oral gavage of FITC-Dextran 4.
Energy expenditure, food intake, and activity measurements were obtained in a PhenoMaster (TSE Systems) as previously described (El-Merahbi, Viera et al., 2020, Trujillo Viera, El-Merahbi et al., 2016). Briefly, mice were kept in separate metabolic cages with unlimited access to water and to the specified diet. After 48 hours of acclimation, data was collected every 10 min including photobeam breaks, oxygen consumption, carbon dioxide dissipation, and food and water consumption. Results in bars represent the average of each night/day cycle.
A glucose tolerance test (GTT) was performed after overnight fasting. Mice blood glucose was assessed before and 15, 30, 60, 90, and 120 minutes after intraperitoneal injection of glucose (2 g/kg). For the Insulin tolerance test (ITT), the same measurements were performed after 4 hours of fasting and intraperitoneal injection of 0.5 U/kg of recombinant insulin. For glucose measurements, one blood drop was drawn from the tail tip into a test strip and measured with a glucometer (Accu-Chek® Roche).
Lipids tolerance test was performed as described previously (Wang, Rong et al., 2016b). Briefly, overnight fasted mice were gavaged with olive oil (10 μL/g body weight). Blood was collected at indicated times for measurement of serum triglycerides content. For lipids absorption under tyloxapol treatment, 250 μg/g of body weight were i.p. injected to mice 30 minutes before the gavage of olive oil 5 μL/g body weight.
Liver triglycerides were measured by homogenization of 50 mg of liver in 500 uL of lysis buffer and lipids extraction in methanol:chloroform, phase extraction and evaporation. The lipids were redissolved in DMSO and triglycerides quantified with the mentioned kit and according to the manufacturers' instructions.
The bedding of single-caged mice was collected and the ingested food ingestion from the individual mice was assessed. All the stools were manually collected. After overnight dissecation at 60° C., the samples were weighted and frozen for further analysis. The amount of feces produced per mouse was compared to the amount of food consumed and the weight gain. About 3 g of dried feces material were homogenized and 1 g was pressed into a tablet and accurately weighted. Calorie content from feces and diet was measured in duplicates in a 6400 Automatic Isoperibol calorimeter (Parr Instrument Company). To analyze energy excreted, the amount of energy in feces was compared to the amount of energy ingested (the product between grams of food and caloric content of the food). Lipids extraction from feces was performed as previously described (Kraus, Yang et al., 2015).
Proteins from tissues and cell culture were extracted with RIPA buffer supplemented with phosphatase and protease inhibitor (PPI, Thermo Fisher Scientific). Protein concentration was measured by Pierce™ BCA Protein Assay Kit (Thermo Fisher Scientific) following the manufacturer's protocol. Reduced protein extracts were separated on 10% SDS-PAGE gels by electrophoresis and transferred to PVDF membranes under wet transfer. Membranes were blocked in 5% (w/v) milk in TBS-T before overnight probing with indicated primary antibodies at 4° C., followed by TBS-T washes and incubation with corresponding secondary antibody.

The test system of data set [3] is PKD 1/2. The conditions noted are these: oral, dose 8 times higher than used here, cited from earlier work.

As for `CC[C@@H](N)CNc1ccnc(-c2cc(-c3cnn(C)c3)ccc2O)n1` [CRT0066101], in data set [1], the “PKD2-dependent phosphorylation of APOA4” value was “abrogates PKD2-dependent phosphorylation”. Also, in data set [2] (oral 10 mg/kg daily, HFD), the “accumulation of TG in the liver” value is “did not affect”; the “brown adipose tissue morphology” value is recorded as “promoted healthier, multilocular brown adipose tissue”; the energy expenditure entry was “did not affect”; the food consumption result is reported as “did not affect”. For the same molecule, in data set [2] (oral 10 mg/kg daily, HFD), the “markers of liver function” value is “did not affect” and the mobility result is on record as “did not affect”. The body weight gain result in data set [2] (oral 10 mg/kg daily, HFD, 13 weeks, vs water, FIG. 6G) was “significantly lower body weight gain”. Moreover, in data set [2] (oral 10 mg/kg daily, HFD, 13 weeks, FIG. 6F), the “levels of APOA4 in the intestine (jejunum, western blot)” value is given as “increased levels of APOA4”. Besides, the fecal energy excretion entry in data set [2] (oral 10 mg/kg daily, HFD, FIG. 6D) is given as “greater fecal energy excretion”. Moreover, the “intestinal TG absorption (lipids tolerance test after olive oil gavage)” value in data set [2] (oral 10 mg/kg daily, after 9 weeks HFD, FIG. 6E) is “decreased intestinal TG absorption”. Moreover, the “glucose tolerance (GTT)” value in data set [2] (oral 10 mg/kg daily, after 10 weeks of treatment and HFD, FIG. 6H) is on record as “improved”. The “insulin tolerance (ITT)” value in data set [2] (oral 10 mg/kg daily, after 11 weeks of treatment and HFD, FIG. 6I) was “improved”. The “obesity induced by a high-fat diet (summary statement)” value in data set [2] (oral administration, mice, also said to prevent hyperlipidemia and diabetes and improve microflora) was “significantly reduces obesity induced by a high-fat diet”. For the same molecule, the “reduction in PKD 1/2 activation” value in data set [3] (pancreatic tumors) is 50%. Further, the “time of highest concentrations in pancreatic tumors” value in data set [3] was 2 h.

Values taken from patent publication US20240082260A1, “INHIBITOR OF PROTEIN KINASE D FOR USE IN PREVENTION OR TREATMENT OF HYPERLIPIDEMIA” (priority 2021, published 2024).
